According to PubChem BioAssay (NCI):
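Cultured in 96-well plates, cells were exposed to test compound for 48 hours across five concentrations. GI50: concentration for 50% inhibition of growth. TGI is the concentration that stops growth completely.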

Key:
Assay in all cases: NCI anticancer screen, dose series, 48 h
NCI-H522 lung = test system: NCI-H522 lung
NCI-H23 lung = test system: NCI-H23 lung
RXF 393 renal = test system: RXF 393 renal
SN12C renal = test system: SN12C renal
OVCAR-3 ovarian = test system: OVCAR-3 ovarian
HOP-62 NSCLC = test system: HOP-62 NSCLC
HCC-2998 colon = test system: HCC-2998 colon
SR leukemia = test system: SR leukemia

O=C1OCC(c2ccc(O)c(O)c2)=C1c1cc(O)c(O)c(O)c1 gave a GI50 (NCI-H522 lung) of 47.4 µM, a TGI (NCI-H522 lung) of over 100 µM and a GI50 (NCI-H23 lung) of 19.2 µM. It also gave a TGI (NCI-H23 lung) of 38.2 µM, a GI50 (RXF 393 renal) of over 100 µM and a TGI (RXF 393 renal) of over 100 µM. The GI50 (SN12C renal) was 15.8 µM, the TGI (SN12C renal) was 29.6 µM and the GI50 (OVCAR-3 ovarian) was 12.9 µM. For the same compound, the TGI (OVCAR-3 ovarian) was 26.5 µM, the GI50 (HOP-62 NSCLC) was 18.5 µM and the TGI (HOP-62 NSCLC) was 33.3 µM.
With COCCNCC(O)Cn1c2ccc(Cl)cc2c2cc(Cl)ccc21 (centres undefined) the GI50 (NCI-H522 lung) was 2.03 µM, the TGI (NCI-H522 lung) was 3.89 µM and the GI50 (NCI-H23 lung) was 2.1 µM. It also gave a TGI (NCI-H23 lung) of 4.7 µM, a GI50 (SN12C renal) of 1.94 µM and a TGI (SN12C renal) of 4.46 µM. The GI50 (HCC-2998 colon) was 1.81 µM, the TGI (HCC-2998 colon) was 3.45 µM and the GI50 (SR leukemia) was 2.98 µM. It also gave a TGI (SR leukemia) of 6.92 µM, a GI50 (OVCAR-3 ovarian) of 1.95 µM and a TGI (OVCAR-3 ovarian) of 3.66 µM. It also gave a GI50 (HOP-62 NSCLC) of 1.87 µM and a TGI (HOP-62 NSCLC) of 3.45 µM.
With Cc1ccc(S(=O)(=O)N(C)C)cc1[N+](=O)[O-] the GI50 (NCI-H522 lung) was over 100 µM, the TGI (NCI-H522 lung) was over 100 µM and the GI50 (NCI-H23 lung) was over 100 µM. It also gave a TGI (NCI-H23 lung) of over 100 µM, a GI50 (RXF 393 renal) of over 100 µM and a TGI (RXF 393 renal) of over 100 µM. For the same compound, the GI50 (SN12C renal) was over 100 µM, the TGI (SN12C renal) was over 100 µM and the GI50 (HCC-2998 colon) was over 100 µM. For the same compound, the TGI (HCC-2998 colon) was over 100 µM, the GI50 (OVCAR-3 ovarian) was over 100 µM and the TGI (OVCAR-3 ovarian) was over 100 µM. The GI50 (HOP-62 NSCLC) was over 100 µM and the TGI (HOP-62 NSCLC) was over 100 µM.
In the case of CC(C)C1CN1CC(O)Cn1ccnc1[N+](=O)[O-] (centres undefined), the TGI (NCI-H522 lung) is reported as over 100 µM, the TGI (NCI-H23 lung) is reported as over 100 µM and the TGI (SN12C renal) is reported as over 100 µM. For the same compound, the TGI (HCC-2998 colon) was over 100 µM, the TGI (OVCAR-3 ovarian) was over 100 µM and the TGI (HOP-62 NSCLC) was over 100 µM.
CC(=O)[CH-]C(=O)c1ccccc1.CC(=O)[CH-]C(=O)c1ccccc1.[Nd+3].[OH-].[OH3+] gave a GI50 (NCI-H522 lung) of over 100 µM, a TGI (NCI-H522 lung) of over 100 µM and a GI50 (NCI-H23 lung) of over 100 µM. It also gave a TGI (NCI-H23 lung) of over 100 µM, a GI50 (RXF 393 renal) of over 100 µM and a TGI (RXF 393 renal) of over 100 µM. For the same compound, the GI50 (SN12C renal) was over 100 µM, the TGI (SN12C renal) was over 100 µM and the GI50 (HCC-2998 colon) was over 100 µM. The TGI (HCC-2998 colon) was over 100 µM, the GI50 (OVCAR-3 ovarian) was over 100 µM and the TGI (OVCAR-3 ovarian) was over 100 µM. It also gave a GI50 (HOP-62 NSCLC) of over 100 µM and a TGI (HOP-62 NSCLC) of over 100 µM.
C[C@]12CC[C@H](O)CC1=CC[C@@H]1[C@@H]2CC[C@]2(C)C(=O)/C(=C/c3cccc(OCCCn4ccnc4)c3)C[C@@H]12 showed a GI50 (NCI-H522 lung) of 16.6 µM, a TGI (NCI-H522 lung) of 34.2 µM and a GI50 (NCI-H23 lung) of 15.5 µM. It also gave a TGI (NCI-H23 lung) of 32.3 µM, a GI50 (SN12C renal) of 28.7 µM and a TGI (SN12C renal) of 88.3 µM. For the same compound, the GI50 (HCC-2998 colon) was 34.1 µM, the TGI (HCC-2998 colon) was over 100 µM and the GI50 (SR leukemia) was 13.9 µM. It also gave a TGI (SR leukemia) of 40 µM, a GI50 (OVCAR-3 ovarian) of 28.8 µM and a TGI (OVCAR-3 ovarian) of over 100 µM. The GI50 (HOP-62 NSCLC) was 20.4 µM and the TGI (HOP-62 NSCLC) was 38.2 µM.
Compound CC1=CC[C@@H]2[C@@H](CC[C@@]2(C)O)C(C)(C)[C@H]1CC[C@@H]1[C@@]2(C)CCC(=O)C(C)(C)O[C@@H]2CC[C@]1(C)O has a TGI (NCI-H522 lung) of 38.9 µM, a TGI (NCI-H23 lung) of over 100 µM and a TGI (SN12C renal) of 42.3 µM. The TGI (HCC-2998 colon) was 40.9 µM, the TGI (SR leukemia) was 59.4 µM and the TGI (OVCAR-3 ovarian) was over 100 µM. The TGI (HOP-62 NSCLC) was over 100 µM.
In the case of C=C1C(=O)O[C@H]2[C@H]1CC/C(COC(=O)OCCCCCOC(=O)OC/C1=C/CC[C@@]3(C)O[C@H]3[C@H]3OC(=O)C(=C)[C@@H]3CC1)=C\CC[C@@]1(C)O[C@@H]21, the GI50 (NCI-H522 lung) is reported as 0.156 µM, the TGI (NCI-H522 lung) is reported as 0.372 µM and the GI50 (NCI-H23 lung) is reported as 0.674 µM. The TGI (NCI-H23 lung) was 2.37 µM, the GI50 (RXF 393 renal) was 0.155 µM and the TGI (RXF 393 renal) was 0.307 µM. The GI50 (SR leukemia) was 0.208 µM, the TGI (SR leukemia) was 0.744 µM and the GI50 (OVCAR-3 ovarian) was 0.273 µM. For the same compound, the TGI (OVCAR-3 ovarian) was 0.823 µM, the GI50 (HOP-62 NSCLC) was 1.76 µM and the TGI (HOP-62 NSCLC) was 4.02 µM.
Compound COc1ccc2c(c1)C(=O)c1c-2c(NCCCN(C)C)nc2ccccc12 has a GI50 (NCI-H522 lung) of 9.79 µM, a TGI (NCI-H522 lung) of 23.4 µM and a GI50 (NCI-H23 lung) of 2.78 µM. It also gave a TGI (NCI-H23 lung) of 10 µM, a GI50 (SN12C renal) of 2.26 µM and a TGI (SN12C renal) of 6.84 µM. It also gave a GI50 (HCC-2998 colon) of 2.48 µM, a TGI (HCC-2998 colon) of 11.7 µM and a GI50 (SR leukemia) of 1.09 µM. It also gave a TGI (SR leukemia) of 3.58 µM, a GI50 (OVCAR-3 ovarian) of 15.3 µM and a TGI (OVCAR-3 ovarian) of 31.7 µM. For the same compound, the GI50 (HOP-62 NSCLC) was 5.93 µM and the TGI (HOP-62 NSCLC) was 19.9 µM.
COc1ccc(C(CC(=O)c2ccccc2)C(C(=O)c2ccccc2)C(c2ccc(OC)cc2)C2C(=O)NC(=O)NC2=O)cc1 (centres undefined) showed a GI50 (NCI-H522 lung) of 16.2 µM, a TGI (NCI-H522 lung) of 72.6 µM and a GI50 (NCI-H23 lung) of 37.3 µM. The TGI (NCI-H23 lung) was over 100 µM, the GI50 (RXF 393 renal) was 22.6 µM and the TGI (RXF 393 renal) was over 100 µM. For the same compound, the GI50 (SN12C renal) was 24.2 µM, the TGI (SN12C renal) was over 100 µM and the GI50 (HCC-2998 colon) was 6.83 µM. For the same compound, the TGI (HCC-2998 colon) was 28.5 µM, the GI50 (OVCAR-3 ovarian) was 11.9 µM and the TGI (OVCAR-3 ovarian) was 44.4 µM. It also gave a GI50 (HOP-62 NSCLC) of 26.3 µM and a TGI (HOP-62 NSCLC) of 66.6 µM.
For CCC(=O)Sc1ccccc1C(=O)Nc1ccc(Cl)cc1, the GI50 (NCI-H522 lung) was 6.21 µM, the TGI (NCI-H522 lung) was 27.1 µM and the GI50 (NCI-H23 lung) was 6.43 µM. For the same compound, the TGI (NCI-H23 lung) was 39.2 µM, the GI50 (RXF 393 renal) was 28.7 µM and the TGI (RXF 393 renal) was over 100 µM. For the same compound, the GI50 (SN12C renal) was 4.26 µM, the TGI (SN12C renal) was 41.8 µM and the GI50 (HCC-2998 colon) was 18.5 µM. The TGI (HCC-2998 colon) was 47 µM, the GI50 (OVCAR-3 ovarian) was 6.34 µM and the TGI (OVCAR-3 ovarian) was 26.1 µM. It also gave a GI50 (HOP-62 NSCLC) of 12.5 µM and a TGI (HOP-62 NSCLC) of 34.2 µM.
For Cc1oc2ccccc2c(=O)c1Cn1nnc2ccccc21, the TGI (NCI-H23 lung) was over 100 µM, the TGI (SN12C renal) was over 100 µM and the TGI (HCC-2998 colon) was over 100 µM. It also gave a TGI (SR leukemia) of over 100 µM, a TGI (OVCAR-3 ovarian) of 79.7 µM and a TGI (HOP-62 NSCLC) of over 100 µM.
C=CC1CC12C(=O)C1OC2(C)C2C(=O)c3ccccc3C(=O)C12 (centres undefined) was tested, and the GI50 (NCI-H522 lung) was over 61.7 µM, the TGI (NCI-H522 lung) was over 100 µM and the GI50 (NCI-H23 lung) was 39.4 µM. For the same compound, the TGI (NCI-H23 lung) was over 59.8 µM, the GI50 (RXF 393 renal) was 35.2 µM and the TGI (RXF 393 renal) was over 100 µM. The GI50 (SN12C renal) was over 56.3 µM, the TGI (SN12C renal) was over 100 µM and the GI50 (HCC-2998 colon) was over 100 µM. The TGI (HCC-2998 colon) was over 100 µM, the GI50 (OVCAR-3 ovarian) was 13.9 µM and the TGI (OVCAR-3 ovarian) was 60.5 µM. For the same compound, the GI50 (HOP-62 NSCLC) was over 68 µM and the TGI (HOP-62 NSCLC) was over 100 µM.
Work on COc1cc2c(-c3nc4cc(Cl)c(F)cc4s3)cc(=O)oc2c(C)c1OC yielded a GI50 (NCI-H522 lung) of 0.176 µM, a TGI (NCI-H522 lung) of 0.354 µM and a GI50 (RXF 393 renal) of 1.55 µM. For the same compound, the TGI (RXF 393 renal) was 3.08 µM, the GI50 (HCC-2998 colon) was 2.4 µM and the TGI (HCC-2998 colon) was 4.29 µM. For the same compound, the GI50 (HOP-62 NSCLC) was 1.67 µM and the TGI (HOP-62 NSCLC) was 3.16 µM.
For COc1cc2c(cc1OC)C13CCN4CC5=CCOC(CC(=O)O)C(C5CC41)C3N2 (centres undefined), the TGI (NCI-H522 lung) was over 100 µM, the TGI (NCI-H23 lung) was over 100 µM and the TGI (SN12C renal) was over 100 µM. For the same compound, the TGI (SR leukemia) was over 100 µM, the TGI (OVCAR-3 ovarian) was over 100 µM and the TGI (HOP-62 NSCLC) was over 100 µM.
